Assays:
[1] = Dynamic PET imaging with [^18F]OXD-2314 in rhesus macaque (baseline and displacement); assay type: in vivo
Procedure: Dynamic PET imaging was performed in a rhesus macaque (macaca mulatta) monkey following the injection of [^18F]OXD-2314 at baseline (104.9 MBq, n = 1) and was repeated in a second [^18F]OXD-2314 study (115.8 MBq, n = 1) where a displacing dose of unlabeled OXD-2314 (0.5 mg/kg) was administered 10 min after [^18F]OXD-2314 injection to verify the absence of specific binding in NHP brain. Venous blood samples were drawn to characterize the metabolic fate of [^18F]OXD-2314 in the macaque. Dynamic [^18F]OXD-2314 PET imaging was also performed in a male (106.6 MBq, n = 1) and a female (115.8 MBq, n = 1) baboon (papio anubis), and venous blood samples were drawn in both baboons to characterize potential effects of sex on radiometabolism. Bilateral regions of interest were defined on 5–8 contiguous axial image planes for the lateral temporal cerebral cortex, cerebellum, striatum, and whole brain, which were used to sample dynamic [^18F]OXD-2314 PET images to determine the time-varying radioactivity concentration expressed in SUV units. [^18F]OXD-2314 readily entered macaque brain (whole brain peak ~2.2 SUV at ~2 min) and distributed uniformly throughout cortical and subcortical grey matter regions (Fig. 5A). […] Radiometabolite analysis of macaque venous blood identified only one, polar radiometabolite, which increased from 37% at 10 min to 77% at 90 min post-injection and was not likely brain penetrant (Figs. S19, S20).
NHP imaging studies in a male (13 kg) macaca mulata monkey and male (25.7 kg) and female (14.2 kg) papio anubis baboons were carried out in accordance with the guidelines set forth by the Institutional Animal Care and Use Committee at the University of Pittsburgh. Additional details regarding the maintenance of an active environmental enrichment program for the housed NHPs are described in Supplemental Information. Dynamic [^18F]OXD-2314 PET imaging of the brains of the isoflurane anesthetized NHPs was performed using a Siemens Biograph mCT Flow 64-4 R PET/CT scanner ([…], maximum intrinsic spatial resolution of 4.3 mm FWHM[53]. Following a low-dose CT scan for attenuation correction of PET emission data, [^18F]OXD-2314 was injected intravenously and emission data were acquired in list-mode for a period of 90 min. Emission data were binned into a dynamic series of 32 frames (20 sec-10 min) and reconstructed using filtered back projection with Fourier rebinning (FORE + FBP) with standard corrections applied that included attenuation, scatter, electronics dead-time, and physical decay.

[2] = molecular target: T1, 4R-tau aggregates in CBD tissue (Homo sapiens, UniProt P10636); test: Competition binding vs [^3H]OXD-2314 in CBD tissue
T1 construct: tissue Neurodegenerative Disease Brain Bank at UCSF; host or cells: human CBD brain, middle frontal gyrus (pool of three) or putamen (one subject)
T1 sequence (P10636 1-441 isoform P10636-8): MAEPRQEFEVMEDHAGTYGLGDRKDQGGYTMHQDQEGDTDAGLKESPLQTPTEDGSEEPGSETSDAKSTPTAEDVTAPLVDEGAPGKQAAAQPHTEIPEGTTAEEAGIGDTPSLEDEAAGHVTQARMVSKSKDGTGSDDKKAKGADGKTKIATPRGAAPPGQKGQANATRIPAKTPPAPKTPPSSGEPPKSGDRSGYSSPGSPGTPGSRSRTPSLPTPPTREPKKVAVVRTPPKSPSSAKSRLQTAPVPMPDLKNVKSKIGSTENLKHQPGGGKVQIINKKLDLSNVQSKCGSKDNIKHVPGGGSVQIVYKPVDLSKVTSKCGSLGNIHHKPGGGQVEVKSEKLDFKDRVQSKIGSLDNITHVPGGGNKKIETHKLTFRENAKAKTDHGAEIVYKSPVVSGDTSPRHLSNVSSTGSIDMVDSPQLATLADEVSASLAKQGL
Procedure: (§1) Fresh frozen, autopsy-confirmed human PD anterior cingulate cortex brain tissue blocks (1 cm^3) were obtained from Dr. Thomas Beach at Banner/Sun Health AZ with funding from the Michael J. Fox Foundation and contained frequent α-synuclein aggregates and no other detectable aggregated amyloid species. The frozen tissue blocks were prepared for the binding assays as previously described[47],[48], except that equal quantities of the homogenates of three AD brains (AD1-AD3, Table S1) were pooled, as were homogenates from three PSP brains (PSP1-PSP3), three CBD brains (CBD1-CBD3), three Pick’s brains (PiD1-PiD3), and 4 PD brains (PD1-PD4) in order to help minimize the inter-subject variability within the different neuropathological groups. Individual subcortical brain tissues from a PSP subject (PSP4) and a CBD subject (CBD4), as well as with the middle frontal cortex of a control subject, were prepared for the binding assays as previously described[47],[48].
(§2) The equilibrium inhibition constant (Ki) values of the unlabeled compounds were determined versus tritium-labeled radioligands using published methods.

[3] = molecular target: T2, 4R-tau aggregates in PSP tissue (Homo sapiens, UniProt P10636); test: Competition binding vs [^3H]OXD-2115 in PSP tissue homogenates; conditions: vs [^3H]OXD-2115, PSP tissue homogenates, n = 1
T2 construct: tissue Neurodegenerative Disease Brain Bank at UCSF
T2 sequence (P10636 1-441 isoform P10636-8): as above
Procedure: as §1, §2

Ki [2] [nM] | Ki [3] [nM] | Structure (SMILES) | initial brain uptake ([1]; NHP) [SUV] | ratio initial maximum to late minimum brain radioactivity ([1]; NHP) | 2:90 min radioactivity concentration ratio ([1]; macaque whole brain) | time of whole brain peak ([1]; macaque, baseline) | whole brain clearance half-time ([1]; macaque, baseline) | whole brain peak uptake ([1]; macaque, baseline, n = 1)
 |  | CO[C@H]1CCCN(c2ccc(-c3cc4cc(O)ccc4[nH]3)c([18F])n2)C1 [[^18F]OXD-2314] | > 2 | ~ 4 | 3.9 | ~ 2 min | ~ 22 min | ~ 2.2 SUV
6.5 ± 0.4 | 4.8 | COC1CCCN(c2ccc(-c3cc4cc(O)ccc4[nH]3)c(F)n2)C1 (centres unmarked) [OXD-2314, 2-(2-fluoro-6-(3-methoxypiperidin-1-yl)pyridin-3-yl)-1H-indol-5-ol] |  |  |  |  |  | 

From publication PMC11178805, “Ligand-based design of [^18F]OXD-2314 for PET imaging in non-Alzheimer’s disease tauopathies” (Nature Communications, 2024)
